# In US20050143463A1, “Method of inhibiting angiogenesis” (THE QUEEN ELIZABETH HOSPITAL RESEARCH FOUNDATION INC., priority 2002, published 2005):
# Read-outs that look alike come from different tables or passages of the source.
# How the values were obtained:
# [1] = test system: Human umbilical vein endothelial cells (HUVEC); assay: HUVEC proliferation assay (tritiated thymidine uptake); type: cell-based; details: for inhibition of HUVEC proliferation in vitro, dose dependent (in words): dose dependent manner
# Protocol: Human umbilical vein endothelial cells (HUVEC) were seeded in 96-well flat bottomed tissue culture plates at a density of 2.5-5×10^4 cells/well and treated with various dilutions of agents. Cells were cultured in RPMI medium containing 20% FCS, Penicillin/Streptomycin in a 5% CO2 atmosphere at 37° C. After 24 to 48 hours of incubation, cells were pulsed with 1 μCi of tritiated thymidine for 6 hours. The pulsed cells were trypsinised to detach from the wells and then harvested in a TOMTEC Cell Harvester onto glass fibre filters, which were dried and immersed in scintillation fluid and counted in a Wallac Microbeta scintillation counter. The results were reported as mean cpm±SD.
# [2] = test system: corneal neovascularisation; assay: Mouse corneal vascularisation model (cornea scratched and infected with Pseudomonas aeruginosa 6294); type: in vivo, BALB/c mice; details: for vascularisation of the cornea compared to Groups 1 and 2 (photomicrographs): Group 3, 200 μmol/10 μL topical; for Percentage of animals showing vascularisation in the infected eye / animals showing vascularisation in the infected eye (number/total): 12-MTA 200 μmol/10 μL topical, every second day from day 4; for corneal neovascularisation in mice (in words): mouse, in vivo
# Description: To induce neovascularisation in the cornea of mice, cornea were scratched and infected with Pseudomonas aeruginosa as essentially described in Cole, N., Willcox, M. D. P., Fleiszig, S. M. J., Stapleton, F., Bao, S., Tout, S., Husband, A. J. (1998) “Different strains of Pseudomonas aeruginosa isolated from ocular infections or inflammation display distinct corneal pathologies in an animal model.” Curr. Eye Res., 17:730-735.
# Briefly, stock cultures of P. aeruginosa 6294 stored in 30% glycerol at −70° C. were inoculated into 10 mL of tryptone soya broth (Oxoid Ltd, Sydney, Australia). Cultures were prepared as previously described (Cole et al. (1998) Curr. Eye Res. 17:730-735) and suspended in phosphate buffered saline (PBS) to a concentration of 4×10^8 cfu (colony forming units)/ml. Bacterial concentration was adjusted turbidimetrically and the dose confirmed retrospectively by viable counts.
# Inbred 6-8 week old BALB/c mice were anaesthetised with Averin (125 mg/kg, intraperitoneally) and the corneal surfaces of the eyes were incised with a sterile 27 gauge needle. 5 μL of the bacterial suspension (2.0×10^6 cfu) of strain 6294 was pipetted directly onto the wounded cornea of the left eye only. The right eye of each animal served as a control and was scratched but not infected. A minimum of eight mice per treatment group were used.
# 12-MTA at 200 μmol/10 μL was prepared as an emulsion in unpreserved paraffin and lanolin ophthalmic ointment base (Polyvisc, Alcon, Belgium) for topical application. Animals were divided into three treatment groups: Group 1 received no treatment; Group 2 received 10 μL of vehicle topically to the cornea per treatment to both the challenged and scratch control eye; and Group 3 received 10 μL of the 12-MTA as described above to both the challenged and scratch control eyes. The treatment schedule was begun four days after challenge and then every second day until the termination of the experiment 14 days post-challenge.
# Mice were examined prior to bacterial challenge, immediately subsequent to bacterial challenge and 7 and 14 days post-challenge by a masked observer. The animals were anaesthetised for examination as described above and the corneas were examined at 48× magnification under white light using an FS2 photo slit-lamp biomicroscope (Topcon Corporation, Tokyo, Japan). At 7 and 14 days post-challenge, following the white light examination, 1% sodium fluorescein was instilled and the corneas viewed under UV light. Grades of severity of corneal damage were made and measurement of the extent and incursion of vessels into the central cornea were made.
# Measurements were examined for significance using non-parametric Kruskal-Wallis and Mann Whitney U analysis.
# For histological examination of corneas, mice were sacrificed at 14 days post-challenge. The eyes were immediately enucleated, fixed in neutral buffered formalin and embedded in paraffin. […] sections were cut and stained with haematoxylin and eosin for histopathological examination.
# Aqueous solubility = type: physicochemical
# [3] = 50 μM, tritiated thymidine uptake
# [4] = 100 μM, tritiated thymidine uptake
# [5] = 200 μM, tritiated thymidine uptake
# [6] = 400 μM, tritiated thymidine uptake
# [7] = 800 μM, tritiated thymidine uptake
compound,measurement,setting,value
"CCC(C)CCCCCCCCCCC(=O)O (stereo not shown) [12-MTA, 12-methyltetradecanoic acid]",% Inhibition of HUVEC proliferation,"[1]; 50 μM, percentage of control cells with no added agent (Table 1)",13.3%
same,Average,[1]; [3],18781.3 cpm
same,Sample 1,[1]; [3],19272 cpm
same,Sample 2,[1]; [3],19942 cpm
same,Sample 3,[1]; [3],17130 cpm
same,Average,[1]; [4],17593.0 cpm
same,Sample 1,[1]; [4],20367 cpm
same,Sample 2,[1]; [4],16963 cpm
same,Sample 3,[1]; [4],15449 cpm
same,Average,[1]; [5],15707.7 cpm
same,Sample 1,[1]; [5],18491 cpm
same,Sample 2,[1]; [5],15435 cpm
same,Sample 3,[1]; [5],13197 cpm
same,HUVEC proliferation (in words),"[1]; 400 μM concentration, tritiated thymidine uptake",inhibited
same,Average,[1]; [6],12104.7 cpm
same,Sample 1,[1]; [6],12558 cpm
same,Sample 2,[1]; [6],13837 cpm
same,Sample 3,[1]; [6],9919 cpm
same,microscopic examination of the cells,[1]; 800 μM,appearance of apoptotic cells
same,Average,[1]; [7],9.0 cpm
same,Sample 1,[1]; [7],11 cpm
same,Sample 2,[1]; [7],7 cpm
same,Sample 3,[1]; [7],9 cpm
same,inhibition at 50 µM,"[1]; Homo sapiens, HUVEC, 50 μM, percentage of control cells with no added agent (Table 1)",13%
same,inhibition at 100 µM,"[1]; Homo sapiens, HUVEC, 100 μM, percentage of control cells with no added agent (Table 1)",18.7%
same,inhibition at 200 µM,"[1]; Homo sapiens, HUVEC, 200 μM, percentage of control cells with no added agent (Table 1)",27.5%
same,inhibition at 400 µM,"[1]; Homo sapiens, HUVEC, 400 μM concentration, percentage of control cells with no added agent (Table 3), read-out: Percentage inhibition of HUVEC proliferation",32%
same,inhibition at 400 µM,"[1]; Homo sapiens, HUVEC, 400 μM, percentage of control cells with no added agent (Table 1), read-out: % Inhibition of HUVEC proliferation",44.1%
same,inhibition at 800 µM,"[1]; Homo sapiens, HUVEC, 800 μM, percentage of control cells with no added agent (Table 1)",99%
same,inhibition at 100 µM,"[1]; Homo sapiens, HUVEC, 24 h, 100 μM 12-MTA, 24 hours (Table 2)",24.8%
same,inhibition at 200 µM,"[1]; Homo sapiens, HUVEC, 24 h, 200 μM 12-MTA, 24 hours (Table 2)",30.2%
same,cell viability,[1]; concentrations between 50 to 400 μM,good viability
same,"inhibition of HUVEC proliferation in vitro, dose dependent (in words)",[1],inhibited in a dose response manner
same,"inhibition of HUVEC proliferation in vitro, dose dependent (in words)",[1]; listed as 12-methyl tetradecanoic acid,inhibit the proliferation
same,effect on scratch control (uninfected) eyes,"[2]; 200 μmol/10 μL topical, any time point",does not affect the cornea
same,blood vessel formation in the corneal stroma (histological examination),"[2]; 14 days post-challenge, Group 3",reduced blood vessel formation
same,vascularisation of the cornea compared to Groups 1 and 2 (photomicrographs),[2]; Day 7,reduced vascularisation
same,Percentage of animals showing vascularisation in the infected eye,[2]; Day 7 post-challenge,40%
same,animals showing vascularisation in the infected eye (number/total),[2]; Day 7 post-challenge,4/10
same,vascularisation of the cornea compared to Groups 1 and 2 (photomicrographs),[2]; Day 14,reduced vascularisation
same,Percentage of animals showing vascularisation in the infected eye,[2]; Day 14 post-challenge,50%
same,animals showing vascularisation in the infected eye (number/total),[2]; Day 14 post-challenge,5/10
same,animals with mild ocular response,"[2]; Group 3, Day 14 post-challenge",60%
same,animals with severe ocular response,"[2]; Group 3, Day 14 post-challenge",20%
same,median score of severity of corneal damage (ocular response),"[2]; Group 3, Day 14 post-challenge",1.65 (range 0-4)
same,animals with a persistent epithelial defect,"[2]; Group 3, first examination",20%
same,animals with mild ocular response,"[2]; Group 3, first examination",50%
same,animals with severe ocular response,"[2]; Group 3, first examination",10%
same,median score of severity of corneal damage (ocular response),"[2]; Group 3, first examination (Day 7 implied, not given)",2.1 (range 0.54)
same,corneal neovascularisation in mice (in words),[2],inhibited corneal neovascularization
same,corneal neovascularisation in mice (in words),[2]; listed as 12-methlytetradecanoic acid,inhibits corneal neovascularisation
same,aqueous solubility,Aqueous solubility,poor
